{"source": "patent US20090291071A1", "about": "“COMPOSITIONS AND METHODS FOR CONTROLLING LIPID METABOLISM” (priority 2007, published 2009)", "key": {"[1]": {"test_system": "lipoprotein", "experiment": "Inhibition of lipoprotein oxidation (heart disease model)", "type": "biochemical", "set-up": "% Inhibition Vit C Alone: concentration or dose not given beside the values", "source_text": "Various combinations of antioxidants were studied to determine synergetic effects on lipoprotein oxidation. […] The antioxidants were used alone and together at micromolar and submolar concentrations to determine additive and […] effects on percentage inhibition of lipoprotein oxidation. A result when used together which is greater than the sum of this effects alone is considered to be a synergistic response. […] (Upper Panel) and Grow C (a natural Vitamin C extract) (Lower Panel)."}, "[2]": {"test_system": "lipoprotein", "experiment": "Glycation of lipoprotein by sugars", "type": "biochemical", "conditions": "for glycation of the lipoprotein by glucose and D-ribose: combined with glucose or D-ribose, and lipoprotein", "source_text": "When dried beer solids, […], Vitamin E and Vitamin C were combined with glucose or D-ribose, and lipoprotein, glycation of the lipoprotein by glucose and D-ribose was inhibited. Similarly when RBC-Vitamin C or Vitamin E were combined with sorbitol and lipoprotein, glycation of the lipoprotein by sorbitol was inhibited."}, "[3]": {"test_system": "LDL", "conditions": "humans, daily ingestion of 1,200 IU; cited from earlier work"}}, "note": "Like-named read-outs stand apart in the source and are kept apart here.", "data": [{"compound": "Catechin", "values": [{"measurement": "quantity of L-ascorbic acid remaining", "setting": "0 h (time zero, reference)", "value": 100, "unit": "%"}, {"measurement": "quantity of L-ascorbic acid remaining", "setting": "6 h, test substance 0.01 mg/ml", "value": 14.6, "unit": "%"}, {"measurement": "quantity of L-ascorbic acid remaining", "setting": "6 h, test substance 0.1 mg/ml", "value": 16.7, "unit": "%"}, {"measurement": "quantity of L-ascorbic acid remaining", "setting": "6 h, test substance 1.0 mg/ml", "value": 17.7, "unit": "%"}, {"measurement": "quantity of L-ascorbic acid remaining", "setting": "20 h, test substance 0.01 mg/ml", "value": 0.8, "unit": "%"}, {"measurement": "quantity of L-ascorbic acid remaining", "setting": "20 h, test substance 0.1 mg/ml", "value": 0.8, "unit": "%"}, {"measurement": "quantity of L-ascorbic acid remaining", "setting": "20 h, test substance 1.0 mg/ml", "value": 1.0, "unit": "%"}, {"measurement": "quantity of L-ascorbic acid remaining", "setting": "44 h, test substance 0.01 mg/ml", "value": 1.4, "unit": "%"}, {"measurement": "quantity of L-ascorbic acid remaining", "setting": "44 h, test substance 0.1 mg/ml", "value": 1.0, "unit": "%"}, {"measurement": "quantity of L-ascorbic acid remaining", "setting": "44 h, test substance 1.0 mg/ml", "value": 1.2, "unit": "%"}, {"measurement": "quantity of L-ascorbic acid remaining", "setting": "72 h, test substance 0.01 mg/ml", "value": 2.4, "unit": "%"}, {"measurement": "quantity of L-ascorbic acid remaining", "setting": "72 h, test substance 0.1 mg/ml", "value": 2.0, "unit": "%"}, {"measurement": "quantity of L-ascorbic acid remaining", "setting": "72 h, test substance 1.0 mg/ml", "value": 2.2, "unit": "%"}, {"measurement": "inhibition of L-ascorbic acid degradation", "setting": "tested up to 1.0 mg/ml", "value": "Neither epicatechin (EPC) nor catechin (CAT) showed any inhibitory effects"}]}, {"compound": "O=C1O[C@H]([C@@H](O)CO)C(O)=C1O", "note": "[Vit C, ascorbic acid]", "values": [{"measurement": "% Inhibition Vit C Alone", "setting": "[1]; line of Weight Ratio Vit C:DBS 0.136:1", "value": 0, "unit": "%"}, {"measurement": "% Inhibition Vit C Alone", "setting": "[1]; line of Weight Ratio Vit C:DBS 0.274:1", "value": 1.2, "unit": "%"}, {"measurement": "% Inhibition Vit C Alone", "setting": "[1]; line of Weight Ratio Vit C:DBS 0.343:1", "value": 2.0, "unit": "%"}, {"measurement": "% Inhibition Vit C Alone", "setting": "[1]; line of Weight Ratio Vit C:DBS 0.520:1", "value": 2.6, "unit": "%"}, {"measurement": "% Inhibition Vit C Alone", "setting": "[1]; line of Weight Ratio Vit C:DBS 0.680:1", "value": 3.0, "unit": "%"}, {"measurement": "glycation of the lipoprotein by glucose and D-ribose", "setting": "[2]", "value": "inhibited"}]}, {"compound": "Cc1c(C)c2c(c(C)c1O)CC[C@@](C)(CCC[C@H](C)CCC[C@H](C)CCCC(C)C)O2", "note": "[E, α-tocopherol]", "values": [{"measurement": "% Inhibition of E Alone", "setting": "[1]; E 25.6 mg", "value": 10.1, "unit": "%"}, {"measurement": "glycation of the lipoprotein by glucose and D-ribose", "setting": "[2]", "value": "inhibited"}, {"measurement": "glycation of the lipoprotein by sorbitol", "setting": "[2]; combined with sorbitol and lipoprotein", "value": "inhibited"}, {"measurement": "increase of the (alpha)-tocopherol content of LDL", "setting": "[3]", "value": "up to 215%"}, {"measurement": "increase of the resistance of LDL to oxidation", "setting": "[3]", "value": "≤ 175", "unit": "%"}]}]}
